Results published in patent publication US5731328A, “Methods of inhibiting plasminogen activator inhibitor 1” (Eli Lilly and Company, priority 1996, dated 1998).

Assays:
[1] = test system: Human umbilical vein endothelial cells (HUVEC); experiment: Responsiveness of HUVEC lots to 17-beta estradiol; format: cell-based; conditions: several lots of cells from Clonetics, initial experiments
[2] = test system: secretion of PAI-1 from human endothelial cells (HUVEC); experiment: Endothelial cell PAI-1 assay: IL-1 induced PAI-1 secretion, Imubind Plasma PAI-1 ELISA; format: cell-based
Protocol: 96 well tissue culture plates were prepared with 5×10^4 human endothelial cells (HUVEC) per well in Clonetics' Endothelial Cell Growth Medium (EGM) supplemented with 2% FBS. Following incubation overnight at 37° C., the medium was replaced with serum-free medium (DMEM/F-12 medium, 20 mM-HEPES, pH 7.5, 50 μg/ml gentamicin, 1 μg/ml human transferrin and 1 μg/ml bovine insulin) with or without compound 1, (where R1 and R2 are hydroxy, and […] is pyrrolidino), and with or without 1 nM IL-1-beta. Following incubation overnight at 37° C., samples of culture medium were assayed for secreted PAI-1 using the Imubind Plasma PAI-1 ELISA (American Diagnostic Inc. #822/1S).
Human umbilical vein endothelial cells (HUVEC) were treated with compound 1 concurrent to the induction of PAI-1 with IL-1. […] Further the positive effect of compound 1 on reducing PAI-1 may provide for acute uses in conditions where elevated levels are associated with pathology.

[3] = test system: estrogen receptor; conditions: cited from earlier work
[4] = test system: PAI-1; conditions: post-menopausal women, estrogen therapy; cited from earlier work

Molecule: C[C@]12CC[C@@H]3c4ccc(O)cc4CC[C@H]3[C@@H]1CC[C@@H]2O [17-beta estradiol]
- responsiveness of HUVEC lots (in words) [1]: not all lots were responsive

Molecule: O=C(c1ccc(OCCN2CCCC2)cc1)c1c(-c2ccc(O)cc2)sc2cc(O)ccc12 [Compound 1]
- induction of PAI-1 by IL-1 (in words) ([2]; 0.5 nM, estrogen-responsive line): significantly reduced the induction of PAI-1 by IL-1
- inhibition at 0.005 µM ([2]; Homo sapiens, 5 × 10^-9 M, IL-1 induced secretion, different lot of estrogen-responsive HUVEC, read-out: PAI-1 Level (% inhibition)): 82 ± 17%
- inhibition at 0.0005 µM ([2]; Homo sapiens, 5 × 10^-10 M, IL-1 induced secretion, different lot of estrogen-responsive HUVEC, read-out: PAI-1 Level (% inhibition)): 65 ± 8%
- inhibition at 50 pM ([2]; Homo sapiens, 5 × 10^-11 M, IL-1 induced secretion, different lot of estrogen-responsive HUVEC, read-out: PAI-1 Level (% inhibition)): 48 ± 11%
- inhibition at 5 pM ([2]; Homo sapiens, 5 × 10^-12 M, IL-1 induced secretion, different lot of estrogen-responsive HUVEC, read-out: PAI-1 Level (% inhibition)): 22 ± 4%
- inhibition at 500 fM ([2]; Homo sapiens, 5 × 10^-13 M, IL-1 induced secretion, different lot of estrogen-responsive HUVEC, read-out: PAI-1 Level (% inhibition)): -1 ± 7%
- inhibition at 50 fM ([2]; Homo sapiens, 5 × 10^-14 M, IL-1 induced secretion, different lot of estrogen-responsive HUVEC, read-out: PAI-1 Level (% inhibition)): 0%
- PAI-1 Level (mean +/- SE, n = 4) ([2]; IL-1 & .5 nM compound 1, HUVEC, overnight at 37° C., serum-free medium, No IL-1 control 328 +/- 46, IL-1 alone 735 +/- 11): 521 ± 52 ng/mL
- inhibition of IL-1 induced PAI-1 secretion, concentration dependence (in words) ([2]; different lot of estrogen-responsive cells): inhibited IL-1 induced secretion in a concentration-dependent manner
- inhibition of the induction of PAI-1 from activated endothelial cells (in words) ([2]; summary of Tables 1 and 2): very potent inhibitor

Molecule: O=C(c1ccc(OCCN2CCCCC2)cc1)c1c(-c2ccc(O)cc2)sc2cc(O)ccc12 [Raloxifene]
- binding to the estrogen receptor (in words) [3]: shown to bind to the estrogen receptor

Molecule: estrogen
- reduction of PAI-1 levels (in words) [4]: reduced to pre-menopausal levels
